The source of these data is ChEMBL document CHEMBL3272317, “Application of SCAP to drug design. 1. Prediction of octanol-water partition coefficients using solvent-dependent conformational analyses” (J Med Chem, 1976).

By logP is commonly meant the decadic logarithm of the partition coefficient of the neutral form, usually between octanol and water. A high value points to a more lipophilic compound.

The data set in a line: Octanol-water partition coefficient, log P of the compound.
The compound `CC(C)(C)CO` yielded a logP of 1.36. `OC1CCCCC1` [CYCLOHEXANOL] displayed a logP of 1.23. In the case of `CCCCCl` [BUTYL CHLORIDE], the lipophilicity (logP) came out at 2.39. With `CCC(C)=O` [BUTANONE], the logP was found to be 0.29. Then `Nc1ccccc1` [ANILINE], with 0.9; and `CCCc1ccccc1`, with 3.68. Then `CCC#N` [PROPIONITRILE], with 0.16.
